Data reported in patent publication US9914755B2, “Cyclosporin derivatives wherein the MeBmt sidechain has been cyclized” (Allergan, Inc., priority 2015, dated 2018).
Converted amounts (≈) assume the structure as drawn. Like-named read-outs stand apart in the source and are kept apart here. Starred links: 1 amine or outer side, 2 acyl side, 3 side chain; linkers in the order of their positions; H or OH if unused. Non-standard residues stand in square brackets, D forms with d. Residues, ends and D or L forms follow the SMILES beside them. X2 = C[C@@H]1CC(O)O[C@H]1[C@H](C(=O)[*:2])N(C)[*:1]; NMeL = CN[C@@H](CC(C)C)C(=O)O; dNMeL = CN[C@H](CC(C)C)C(=O)O; dNMeV = CN[C@@H](C(=O)O)C(C)C; dNMeA = CN[C@H](C)C(=O)O

Legend:
[1] = Water Solubility Assay (onset of precipitation in buffer); details: 25 °C, pH 7.4, aqueous buffer, kinetic from dmso stock
Experimental: (§2) The aqueous solubility of a compound of Formula I in buffer (pH 7.8) was measured by recording the onset of precipitation of the compound as a function of increasing concentration. The onset of precipitation, if it occurred, was detected by an increase in absorbance at 650 nm.
(§3) Stock solutions of Control and Test Compounds: 10 mM in 100% DMSO.
(§4) 10 mM stock solutions of control and test compounds were prepared in 100% DMSO.
(§5) Assay buffer (247.5 μl) was placed into a flat bottomed transparent 96-well plate. For blank samples, DMSO (2.5 μl) was added. For test and control samples, 2.5 μl of the appropriate DMSO dilution stocks were added to the appropriate well. All test and control compounds were performed in triplicate.
(§6) The plates were sealed with adhesive plate seal and shaken at 250 rpm at 25° C. for 18 h on a plate shaker. After incubation, the plate seals were taken off and any bubbles observed in wells removed. The plates were read on a SpectraMaxM5 with a 5 s pre-shake at 650 nm.
(§7) Data files were transferred to the appropriate worksheet and the solubility range of the compounds was calculated from the data.

[2] = molecular target: T1, Human recombinant cyclophilin A (CypA) (Homo sapiens, UniProt P62937); test: Protease-free PPIase assay, cyclophilin A; format: biochemical
T1 construct: purchased Sigma C3805
Experimental: (§1) Protease-Free PPIase Assay The protease-free PPIase assay measures the rate of cis to trans conversion of a peptide substrate catalyzed by the enzyme cyclophilin A or D. Addition of a cyclophilin inhibitor (e.g., a test compound) slows the catalyzed rate and a Ki value is obtained. 35 mM HEPES pH 7.8, filtered through a 0.2 μm filter. 50 μM DTT was added prior to use each day and then the buffer was stored on ice. […] Human recombinant 6-His tagged cyclophilin D (CypD), prepared by the University of Edinburgh, was used to generate CypD inhibition data. Succinimide-[…]-nitroanilide (SUC-AAPF-pNA) (from Bachem AG, L-1400), 20 mg/ml prepared in 0.5 M LiCl in trifluoroethanol. All readings were taken with an Agilent 8453 Spectrophotometer which consisted of a cuvette holder, stirrer and chiller to maintain a stirred cuvette temperature of 10.0±0.1° C. The temperature was monitored by the use of temperature probe. […] The inhibitor was diluted in 100% DMSO, and then added to the assay to a maximum final concentration of 0.5% DMSO in the assay. […] The absorbance was measured at 330 nm for 300 s or 500 s for blank runs (NOTE: the substrate was added in one quick injection and the measurements started immediately to minimize mixing errors). A first order rate equation was fitted to the absorbance data, for each concentration of inhibitor, to obtain the rate constant (the first 10 to 15 seconds were excluded, as mixing causes errors in this portion of the curve). The catalytic rate was calculated from the enzymatic rate constant minus the background rate constant. An exponential curve was generated using the catalytic rate constants versus the inhibitor concentration to obtain the Ki value for the inhibitor. The Ki value is indicative of the binding affinity between the test compound and cyclophilin A.

[3] = molecular target: T2, Human recombinant 6-His tagged cyclophilin D (CypD) (Homo sapiens, UniProt P30405); test: Protease-free PPIase assay, cyclophilin D; format: biochemical
T2 construct: 6-His
Experimental: as §1

physchem = details: 25 °C, pH 7.4, aqueous buffer, kinetic from dmso stock
Experimental: as §2, §3, §4, §5, §6, §7

calcineurin = molecular target: T3, calcineurin (Homo sapiens, UniProt P62937+P63098+Q08209); test: Calcineurin Phosphatase (CaN) Assay; format: biochemical; details: in the presence of CypA, 1:1 complex of inhibitor with CypA
T3 construct: purchased Enzo Life Sciences BML-AK804
Excerpt: Calcineurin Phosphatase (CaN) Assay
The calcineurin phosphatase assay is a means for estimating the immunosuppressive potential of a test compound. Calcineurin is a serine-threonine protein phosphatase that on activation dephosphorylates members of the nuclear factor of activated T cells (NFAT), which are important in T lymphocyte activation.
To investigate the immunosuppressive potential of exemplary compounds of Formula I, which are cyclosporin analogs, their ability to inhibit calcineurin activity was measured in the presence and absence of CypA.
The CaN assay kit used is based on a colorimetric assay for measuring calcineurin phosphatase activity, and it is commercially available (Enzo Life Sciences and Calbiochem). Calmodulin is also required for calcineurin activity, and RII phosphopeptide is used as an efficient peptide substrate for calcineurin. […] The detection of free phosphate released is based on the classic Malachite green assay.
Enzo Life Sciences CaN Assay Kit: BML-AK804
For samples ‘without CypA’, a 4-point dilution series of the inhibitor was prepared in duplicate to obtain a final assay concentration of 10, 1, 0.1 and 0.01 μM. For samples ‘with CypA’, a 7-point dilution series was prepared to obtain a 1:1 complex of the inhibitor with CypA; the inhibitor and CypA final assay concentrations of 10, 3.33, 1.11, 0.37, 0.12, 0.04, 0.014 μM were prepared.
using the half area 96 well plates supplied with the kit, 10 μl UPW was added to duplicate wells to provide the non-inhibited control. 10 μl of the inhibitor or the inhibitor/CypA complex was added to the appropriate sample wells. 25 μl of the 2× assay buffer with calmodulin (CaM) was added to all wells, then 5 μl of calcineurin phosphatase (CaN) was added to all wells (40 U per well final concentration) except duplicate ‘no calcineurin blank’ wells to which 5 μL 1× assay buffer was added. The assay plate was placed in an oven at 30° C. for 15 minutes to equilibrate to the reaction temperature. The reaction was started by the addition of 10 μl RII-peptide (0.15 mM final concentration). The reaction was allowed to proceed at 30° C. for a time period in which the reaction is linear for about 60 minutes. The reaction was then terminated by adding 100 μl of the Malachite Green reagent. The color was allowed to develop for 15-30 minutes at room temperature before the absorbance at 620 nm was measured using a plate reader (Molecular Devices—SpectraMax M5). The data were analyzed by subtracting ‘no calcineurin blank’ from all the absorbance readings and plotting the background corrected absorbances against Log10 inhibitor concentration. A sigmoidal-dose response curve was fitted to the data using GraphPad Prism Software.
It exerts its immunosuppressive activity by binding to CypA to form a complex, which then binds to calcineurin and thereby inhibits calcineurin activity.

[4] = human recombinant CypA, 10 °C, SUC-AAPF-pNA substrate, read-out: CypA Protease-free PPIase Assay Ki
[5] = human recombinant 6-His CypD, 10 °C, SUC-AAPF-pNA substrate, read-out: CypD Protease-free PPIase Assay Ki

T1 sequence (P62937 whole entry): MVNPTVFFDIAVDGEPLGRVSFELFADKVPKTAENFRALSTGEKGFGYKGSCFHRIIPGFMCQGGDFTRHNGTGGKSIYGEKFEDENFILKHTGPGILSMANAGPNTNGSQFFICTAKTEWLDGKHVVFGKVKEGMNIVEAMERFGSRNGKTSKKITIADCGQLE
T2 sequence (P30405 30-207): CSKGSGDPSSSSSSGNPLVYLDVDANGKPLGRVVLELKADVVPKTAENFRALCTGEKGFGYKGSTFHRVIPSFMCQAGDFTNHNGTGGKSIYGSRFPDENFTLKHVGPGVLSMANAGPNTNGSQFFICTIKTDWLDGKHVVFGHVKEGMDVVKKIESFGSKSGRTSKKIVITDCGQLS

| Compound | solubility at 18 h [1] [µM] | Ki [2] [nM] | Ki [3] [nM] | solubility at 18 h (physchem) [µM] | IC50 (calcineurin) [nM] | Ki [2, 4] [nM] | Ki [3, 5] [nM] |
| --- | --- | --- | --- | --- | --- | --- | --- |
| CC(C)C[C@@H]1C(=O)N(C)[C@H](CC(C)C)C(=O)N(C)[C@H](C(C)C)C(=O)N(C)[C@H]([C@@H]2OCC[C@H]2C)C(=O)N[C@H](C)C(=O)N(C)CC(=O)N(C)[C@@H](CC(C)C)C(=O)N[C@H](C(C)C)C(=O)N(C)[C@H](CC(C)C)C(=O)N[C@H](C)C(=O)N[C@@H](C)C(=O)N1C [Compound 9, [(2S)-2-(methylamino)-2-[(2R,3R)-3-methyltetrahydrofuran-2-yl]acetic acid]^1 cyclosporin B] | > 100 | 8600 | 200 |  |  |  |  |
| CC(C)C[C@@H]1C(=O)N(C)[C@H](CC(C)C)C(=O)N(C)[C@H](C(C)C)C(=O)N(C)[C@H]([C@@H]2OC(O)C[C@H]2C)C(=O)N[C@H](C(C)C)C(=O)N(C)[C@H](C)C(=O)N(C)[C@@H](CC(C)C)C(=O)N[C@H](C(C)C)C(=O)N(C)[C@H](CC(C)C)C(=O)N[C@H](C)C(=O)N[C@@H](C)C(=O)N1C (stereo partly drawn) [Compound 14, [(2S)-2-[(2R,3R)-5-Hydroxy-3-methyl-tetrahydrofuran-2-yl]-2-(methylamino)acetic acid]^1 [(R)-methyl-Sar]^3 cyclosporin D] (cyclo(A[dNMeL][dNMeL][dNMeV][X2][dV][dNMeA][NMeL][dV][dNMeL][dA])) |  |  |  | > 100 | > 10000 | 20.4 | 8.4 |
| CC[C@H]1NC(=O)[C@H]([C@H]2OCC[C@H]2C)N(C)C(=O)[C@@H](C(C)C)N(C)C(=O)[C@@H](CC(C)C)N(C)C(=O)[C@@H](CC(C)C)N(C)C(=O)[C@H](C)NC(=O)[C@@H](C)NC(=O)[C@@H](CC(C)C)N(C)C(=O)[C@@H](C(C)C)NC(=O)[C@H](CC(C)C)N(C)C(=O)[C@@H](C)N(C)C1=O [Compound 18, [(2S)-2-(methylamino)-2-[(2S,3R)-3-methyltetrahydrofuran-2-yl]acetic acid]^1 [(R)-methyl-Sar]^3 cyclosporin A] |  |  |  | 25 (≈ 29.7 µg/mL) | > 10000 | 79 | 15 |
| CC[C@H]1NC(=O)[C@@H]([C@@H]2OCC[C@H]2C)N(C)C(=O)[C@@H](C(C)C)N(C)C(=O)[C@@H](CC(C)C)N(C)C(=O)[C@@H](CC(C)C)N(C)C(=O)[C@H](C)NC(=O)[C@@H](C)NC(=O)[C@@H](CC(C)C)N(C)C(=O)[C@@H](C(C)C)NC(=O)[C@H](CC(C)C)N(C)C(=O)[C@@H](C)N(C)C1=O [Compound 3, [(2S)-2-(methylamino)-2-[(2R,3R)-3-methyltetrahydrofuran-2-yl]acetic acid]^1 [(R)-methyl-Sar]^3 cyclosporin A] |  |  |  | > 100 | > 10000 | 95 | 4.4 |
